Where “and” joins values, the source holds several entries; their conditions need not be identical. Equal entries are not always repeated.
How the values were obtained:
Glutamate receptor 3 = Glutamate receptor 3 (Rattus norvegicus, UniProt P19492)
[1] = biological target: Glutamate receptor ionotropic, kainate 1 (Rattus norvegicus, UniProt P22756)
[2] = biological target: Glutamate receptor ionotropic, NMDA 1 (Rattus norvegicus, UniProt P35439)

Chain of Glutamate receptor 3 (P19492 whole entry): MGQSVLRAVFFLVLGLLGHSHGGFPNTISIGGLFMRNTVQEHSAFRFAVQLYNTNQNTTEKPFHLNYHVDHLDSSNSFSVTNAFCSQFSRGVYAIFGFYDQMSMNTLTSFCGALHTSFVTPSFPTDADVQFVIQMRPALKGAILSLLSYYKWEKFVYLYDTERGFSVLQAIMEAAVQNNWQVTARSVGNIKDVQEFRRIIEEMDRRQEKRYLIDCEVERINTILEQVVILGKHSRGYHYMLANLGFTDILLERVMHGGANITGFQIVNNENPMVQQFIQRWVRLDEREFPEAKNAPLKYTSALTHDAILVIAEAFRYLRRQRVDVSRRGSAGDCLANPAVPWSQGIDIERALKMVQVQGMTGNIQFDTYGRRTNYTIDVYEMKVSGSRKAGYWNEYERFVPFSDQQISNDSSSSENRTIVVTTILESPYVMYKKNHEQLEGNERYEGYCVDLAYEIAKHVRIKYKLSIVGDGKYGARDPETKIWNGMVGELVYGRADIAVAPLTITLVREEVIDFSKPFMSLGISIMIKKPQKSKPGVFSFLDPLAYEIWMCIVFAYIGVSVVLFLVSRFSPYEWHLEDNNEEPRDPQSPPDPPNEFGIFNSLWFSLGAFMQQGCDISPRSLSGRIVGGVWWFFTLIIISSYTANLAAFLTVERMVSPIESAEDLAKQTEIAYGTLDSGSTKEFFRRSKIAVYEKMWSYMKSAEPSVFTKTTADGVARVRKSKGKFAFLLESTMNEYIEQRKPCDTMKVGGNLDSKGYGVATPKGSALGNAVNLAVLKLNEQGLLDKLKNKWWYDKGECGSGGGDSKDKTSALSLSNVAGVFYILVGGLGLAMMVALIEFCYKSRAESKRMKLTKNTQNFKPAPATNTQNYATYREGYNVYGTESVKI
Chain of Glutamate receptor ionotropic, kainate 1 (P22756 whole entry): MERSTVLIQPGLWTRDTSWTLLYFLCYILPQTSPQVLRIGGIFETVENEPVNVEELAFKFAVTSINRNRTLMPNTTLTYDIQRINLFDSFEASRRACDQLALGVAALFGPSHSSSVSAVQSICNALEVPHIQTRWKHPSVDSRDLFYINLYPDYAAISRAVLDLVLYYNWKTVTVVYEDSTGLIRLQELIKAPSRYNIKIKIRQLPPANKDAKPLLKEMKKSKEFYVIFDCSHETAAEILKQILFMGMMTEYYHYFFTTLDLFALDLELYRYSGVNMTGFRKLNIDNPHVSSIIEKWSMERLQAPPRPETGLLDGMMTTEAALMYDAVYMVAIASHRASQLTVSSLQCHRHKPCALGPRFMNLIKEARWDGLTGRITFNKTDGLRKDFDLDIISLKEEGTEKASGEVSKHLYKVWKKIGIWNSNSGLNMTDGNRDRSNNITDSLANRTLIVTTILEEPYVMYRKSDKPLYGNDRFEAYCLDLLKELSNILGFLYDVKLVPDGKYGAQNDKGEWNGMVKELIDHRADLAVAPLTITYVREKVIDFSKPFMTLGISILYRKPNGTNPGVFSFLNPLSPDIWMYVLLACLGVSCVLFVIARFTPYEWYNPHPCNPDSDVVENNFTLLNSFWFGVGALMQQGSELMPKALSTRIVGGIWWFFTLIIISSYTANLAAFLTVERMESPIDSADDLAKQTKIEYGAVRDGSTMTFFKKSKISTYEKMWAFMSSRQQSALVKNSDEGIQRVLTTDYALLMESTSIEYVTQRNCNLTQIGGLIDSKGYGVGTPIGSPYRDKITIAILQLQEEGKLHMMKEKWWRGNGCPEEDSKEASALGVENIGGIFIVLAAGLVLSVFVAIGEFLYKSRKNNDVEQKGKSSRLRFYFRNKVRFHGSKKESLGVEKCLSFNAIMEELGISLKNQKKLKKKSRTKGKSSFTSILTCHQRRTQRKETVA

Ki (Glutamate receptor 3)	Ki [1]	Ki [2]	Compound
0.025 µM	3.6 µM	> 10 µM	Cc1onc(C(=O)O)c1C[C@H](N)C(=O)O
0.02 µM	6.3 µM	> 10 µM	Cc1onc(C(=O)O)c1CC(N)C(=O)O [(S)-2-AMINO-3-(3-CARBOXY-5-METHYLISOXAZOL-4-YL)PROPIONIC ACID]
0.039 µM and 0.1 µM	–	> 10 µM	N[C@@H](Cc1conc1C(=O)O)C(=O)O [Demethyl-ACPA]
0.27 µM	> 10 µM	> 10 µM	C[C@H](NC(=O)CNC(=O)[C@@H](NC(=O)[C@H](Cc1ccccc1)NC(=O)CNC(=O)CNC(=O)[C@@H](N)Cc1ccccc1)[C@@H](C)O)C(=O)N[C@@H](CCCN=C(N)N)C(=O)N[C@@H](CCCCN)C(=O)N[C@@H](CO)C(=O)N[C@@H](C)C(=O)N[C@@H](CCCN=C(N)N)C(=O)N[C@@H](CCCCN)C(N)=O [OFQ/N (1-11),[Tyr10]]
–	> 10 µM	> 10 µM	Cc1onc(C(=O)O)c1C[C@@H](N)C(=O)O [(R)-ACPA]
9.4 µM	> 10 µM	4.5 µM	N[C@@H](Cc1conc1C(=O)O)C(=O)O [(R)-Demethyl-ACPA]
